One assay deals with naïve CD8^+ T cells. Briefly: CD8^+ T cell costimulation assay. The format is cell-based, BALB/c mouse. Conditions: inhibitor added to TS/PMA activated CD8^+ T cell cultures. On the procedure:
(§1) Fig 6 TS enzymatic activity is associated with costimulatory effects. In panel A, enzymatic activities of WT and TSKd1 mutant proteins were determined in lysates and supernatants of 293T cells transfected with WT TS and TSKd1 null DNA using fluorometric TS enzymatic activity assays. […] CD8^+ T cells from naïve 4–5 week old BALB/c mice were purified by positive magnetic bead selection and incubated with suboptimal doses of PMA (12.5ng/ml) ± WT or TSKd1 null rTS. After 3 days, proliferation was measured by ^3H-Thymidine incorporation. Shown are incorporated ^3H-Thymidine counts per minute (CPM) above suboptimal PMA treatment alone. Similar TS costimulation assays using naïve CD8^+ T cells were conducted with CD45 inhibitor PTP or Src-family kinase inhibitor PP2 added (C). In panel D, increasing concentrations of TSKd1 peptide were added to constant amounts of WT TS in TS enzyme assays. […]
CD8^+ T cells purified by positive Miltenyi magnetic bead selection from naïve 4–5 week old BALB/c mice were added to 96-well flat bottom plates (2x10^5 cells/well) and stimulated with suboptimal doses of PMA (12.5 ng/ml) with or without recombinant WT vs TSKd1 null TS protein (25–100 μg/ml) similar to TS costimulatory assays conducted previously. […] Ultima Gold F scintillation fluid was added and filtermats counted using a Perkin Elmer TriLux MicroBeta 1450 instrument. […]

The next assay concerns the target WT TS (Trypanosoma cruzi, UniProt P23253). Briefly: Inhibition of TS enzymatic activity (MuNANA hydrolysis). The class given is biochemical. On the procedure:
as §1, with “alone.” for “alone. Similar TS costimulation assays using naïve CD8^+ T cells were conducted with CD45 inhibitor PTP or Src-family kinase inhibitor PP2 added (C). In panel D, increasing concentrations of TSKd1 peptide were added to constant amounts of WT TS in TS enzyme assays.”
Trans-sialidase enzymatic activity was assayed as described previously. […] The acid elutions were incubated at 95°C for 45 minutes, the reactions neutralized with glycine/NaOH (pH 10) and released 4-MU measured by fluorescence emission at 450nm and compared to a standard curve. […] The reaction was continuously monitored in a SpectraMax i3 Multi-Mode Detection Platform (Molecular Devices) after pre-incubation of the enzyme with the peptide for 10 min at room temperature. The residual activity at each concentration of TSKd1 was obtained by dividing the slope calculated at each concentration of TSKd1 (Vi) by the initial velocity determined in the absence of peptide (V0). […]

The subject of a further assay is CD4^+ T cells. Details: method as in manuscript in preparation. Conditions: after TS vaccination; I-A^d-restricted; ref manuscript in preparation; cited from earlier work.

The source of these data is PMC5028030, “Costimulatory Effects of an Immunodominant Parasite Antigen Paradoxically Prevent Induction of Optimal CD8 T Cell Protective Immunity” (PLoS Pathogens, 2016).

“Also recorded” adds a separate entry of the source. Peptide text beside a SMILES is read from it.

Sequence of WT TS (P23253 whole entry): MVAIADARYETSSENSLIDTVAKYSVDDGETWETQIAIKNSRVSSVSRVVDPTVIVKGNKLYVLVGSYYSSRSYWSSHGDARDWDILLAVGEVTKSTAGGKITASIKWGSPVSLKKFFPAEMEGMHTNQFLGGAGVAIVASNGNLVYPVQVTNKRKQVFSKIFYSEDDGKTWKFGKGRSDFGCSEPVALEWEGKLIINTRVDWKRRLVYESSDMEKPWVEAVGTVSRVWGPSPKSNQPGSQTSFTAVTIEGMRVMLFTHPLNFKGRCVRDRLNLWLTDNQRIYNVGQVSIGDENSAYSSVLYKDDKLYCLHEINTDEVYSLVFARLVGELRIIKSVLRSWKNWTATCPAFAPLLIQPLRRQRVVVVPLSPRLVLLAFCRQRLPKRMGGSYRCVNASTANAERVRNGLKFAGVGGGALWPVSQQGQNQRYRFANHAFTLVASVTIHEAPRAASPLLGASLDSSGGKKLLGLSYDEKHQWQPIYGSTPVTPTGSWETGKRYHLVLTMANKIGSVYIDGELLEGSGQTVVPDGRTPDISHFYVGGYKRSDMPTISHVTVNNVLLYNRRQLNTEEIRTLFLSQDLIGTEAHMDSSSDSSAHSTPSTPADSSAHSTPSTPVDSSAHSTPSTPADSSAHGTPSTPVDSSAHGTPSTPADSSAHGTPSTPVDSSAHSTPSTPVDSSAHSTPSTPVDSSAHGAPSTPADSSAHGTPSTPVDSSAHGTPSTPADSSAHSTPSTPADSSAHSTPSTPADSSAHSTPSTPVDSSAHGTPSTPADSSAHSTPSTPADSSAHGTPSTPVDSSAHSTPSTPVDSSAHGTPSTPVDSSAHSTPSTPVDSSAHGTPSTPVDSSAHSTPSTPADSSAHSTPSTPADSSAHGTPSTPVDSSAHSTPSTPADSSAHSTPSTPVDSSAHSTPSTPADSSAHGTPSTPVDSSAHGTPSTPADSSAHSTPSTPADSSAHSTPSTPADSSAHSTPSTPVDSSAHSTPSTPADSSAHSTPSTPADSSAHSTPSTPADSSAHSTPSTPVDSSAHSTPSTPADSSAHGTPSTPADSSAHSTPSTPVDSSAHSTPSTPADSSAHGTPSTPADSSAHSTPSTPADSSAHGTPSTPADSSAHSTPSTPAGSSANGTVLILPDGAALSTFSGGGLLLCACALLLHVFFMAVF

Turning to `CC(C)(C)C(=O)Nc1ccc2c(c1)C(=O)C(=O)c1ccccc1-2` [PTP, N-[(9-10-dioxo-9,10-dihydro-phenanthren-2-yl)-2,2-dimethyl-propionamide]], the “inhibition of TS costimulatory activity” value in the assay on naïve CD8^+ T cells is given as “blocked; also recorded: prevent co-stimulation of naïve CD8^+ T cells”.

Take `CC[C@H](C)[C@H](N)C(=O)N[C@@H](Cc1ccc(O)cc1)C(=O)N[C@@H](CC(N)=O)C(=O)N[C@H](C(=O)NCC(=O)N[C@@H](CCC(N)=O)C(=O)N[C@H](C(=O)N[C@@H](CO)C(=O)N[C@H](C(=O)O)[C@@H](C)CC)C(C)C)C(C)C` [TSKd1, IYNVGQVSI] (H-IYNVGQVSI-OH): the IC50 – broadly, the midpoint of a concentration-inhibition curve – against WT TS was 20 ± 3 µM. Consider KVTERVVHSFRLPALVNV [p7], for which, in the assay on CD4^+ T cells, the “CD4^+ T cell response to peptide” value is “most potent CD4^+ T cell responses of any peptide tested”.
